Test system: aortic wall hypoxia-induced rat AAA model
Test: Aortic wall hypoxia-induced rat AAA model: non-rupture survival / mortality due to rupture
Assay type: in vivo
Conditions: day of operation to Day 28 post operation, versus control group; trend toward improvement in survival rate
Description: The action of Compound 1 and pitavastatin in rat AAA models (Non-Patent Document 3) induced by operation were examined. In the operation, the aortic wall of each model was separated from the surrounding tissues. After a catheter was inserted, the abdominal aorta was ligated together with a catheter with a thread was studied.
In the test, Compound 1 was manufactured according to the method disclosed in Patent Document 1 and mixed, in a proportion of 0.15%, with a normal diet (FR2, manufactured by Funabashi Farm Co., Ltd.), and the Compound 1-mixed diet was used. In regard to pitavastatin, 0.003% of pitavastatin calcium was mixed with a normal diet(FR2, manufactured by Funabashi Farm Co., Ltd.) and the pitavastatin-mixed diet was used.
Sprague-Dawley male rats (300 to 350 g: Japan SLC, Inc.) were used in the experiment. The rats were reared at room temperature of 25° C.±1° C., and allowed to freely take the feed and water.
The model was created according to the method disclosed in Non-Patent Document 3. Specifically, a rat AAA model was created by separating the rat aortic wall from the surrounding tissue, inserting a polyurethane catheter, and then ligating the abdominal aorta together with a plastic catheter with a monofilament thread, and inducing AAA. […]
In each group, up to 28 days post operation, the aneurysm diameter was measured by echo and comparison in survival was made. […]

O=C(NCCCOc1ccc2[nH]c(=O)ccc2c1)N(C1CC1)[C@@H]1CCCC[C@H]1O [Compound 1, (−)-6-[3-[3-cyclopropyl-3-[(1R,2R)-2-hydroxycyclohexyl]ureido]propoxy]-2(1H)-quinolinone]
mortality rates due to rupture: lower than that in the control group

From US20220184058A1, “PHARMACEUTICAL COMPOSITION FOR TREATING AORTIC ANEURYSM” (National University Corporation Hamamatsu University School …, priority 2019, published 2022)
